The target of one assay is Acetylcholinesterase (Electrophorus electricus, UniProt O42275). The experiment in a line: Inhibition of Electrophorus electricus (electric eel) acetylcholinesterase (AChE) using acetylthiocholine iodide substrate by Ellman method based colorimetry. (In general: In Ellman's method for cholinesterases, released thiocholine reacts with DTNB.)
Assay [1] has as its target Acetylcholinesterase (Electrophorus electricus) (UniProt O42275). The experiment in a line: Reversible inhibition of Electrophorus electricus (electric eel)acetylcholinesterase (AChE) using acetylthiocholine iodide substrate by Ellman method based colorimetry.
Assay [2] shares this target. The experiment in a line: Competitive inhibition of Electrophorus electricus (electric eel) acetylcholinesterase (AChE) using acetylthiocholine iodide substrate by Ellman method based colorimetry.
The target is the same in assay [3]. The experiment in a line: Mixed type inhibition of Electrophorus electricus (electric eel) acetylcholinesteraseAChE using acetylthiocholine iodide substrate by Ellman method based colorimetry.
Assay [4] shares this target. The experiment in a line: Inhibition of Electrophorus electricus (electric eel) acetylcholinesterase (AChE) at 1 mM using 1 mM acetylthiocholine iodide substrate after 15 min by Ellman method based colorimetry.
Assay [5] shares this target. The experiment in a line: Inhibition of Electrophorus electricus (electric eel) acetylcholinesterase (AChE) at 50 mM using 5 mM acetylthiocholine iodide substrate after 15 min by Ellman method based colorimetry.
Assay [6] shares this target. The experiment in a line: Inhibition of Electrophorus electricus (electric eel) acetylcholinesterase (AChE) at 100 mM using 10 mM acetylthiocholine iodide substrate after 15 min by Ellman method based colorimetry.
For assay [7] the target is unchanged. The experiment in a line: Inhibition of Electrophorus electricus (electric eel) acetylcholinesterase (AChE) at 10 mM using 2 mM acetylthiocholine iodide substrate after 15 min by Ellman method based colorimetry.

The structures appear in SMILES notation. Active and inactive are the calls of the source. The calls are words filed in the database; no cut-off is given here.

Broadly, the Ki is a dissociation constant, usually derived from enzyme kinetics or from competition with a known ligand. In general, inhibition refers to how much of the control response was suppressed.

Chain of Acetylcholinesterase (O42275 whole entry): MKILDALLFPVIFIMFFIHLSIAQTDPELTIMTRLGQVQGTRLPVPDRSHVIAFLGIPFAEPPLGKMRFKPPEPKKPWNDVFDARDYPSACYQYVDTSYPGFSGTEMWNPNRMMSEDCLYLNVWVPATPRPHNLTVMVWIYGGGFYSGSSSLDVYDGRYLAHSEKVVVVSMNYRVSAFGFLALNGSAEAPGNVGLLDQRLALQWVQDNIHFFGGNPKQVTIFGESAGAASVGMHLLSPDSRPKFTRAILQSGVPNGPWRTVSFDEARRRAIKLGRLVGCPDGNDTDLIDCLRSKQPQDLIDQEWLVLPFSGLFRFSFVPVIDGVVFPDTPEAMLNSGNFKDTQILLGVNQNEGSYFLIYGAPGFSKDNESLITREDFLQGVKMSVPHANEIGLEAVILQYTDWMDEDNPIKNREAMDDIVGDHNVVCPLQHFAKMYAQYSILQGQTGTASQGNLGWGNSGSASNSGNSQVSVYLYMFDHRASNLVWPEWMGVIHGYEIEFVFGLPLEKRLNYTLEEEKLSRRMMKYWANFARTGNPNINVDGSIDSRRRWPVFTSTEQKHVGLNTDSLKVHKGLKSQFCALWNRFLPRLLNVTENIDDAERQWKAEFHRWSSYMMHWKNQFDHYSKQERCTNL
Chain of Acetylcholinesterase (Electrophorus electricus) (O42275 24-633 limits assumed): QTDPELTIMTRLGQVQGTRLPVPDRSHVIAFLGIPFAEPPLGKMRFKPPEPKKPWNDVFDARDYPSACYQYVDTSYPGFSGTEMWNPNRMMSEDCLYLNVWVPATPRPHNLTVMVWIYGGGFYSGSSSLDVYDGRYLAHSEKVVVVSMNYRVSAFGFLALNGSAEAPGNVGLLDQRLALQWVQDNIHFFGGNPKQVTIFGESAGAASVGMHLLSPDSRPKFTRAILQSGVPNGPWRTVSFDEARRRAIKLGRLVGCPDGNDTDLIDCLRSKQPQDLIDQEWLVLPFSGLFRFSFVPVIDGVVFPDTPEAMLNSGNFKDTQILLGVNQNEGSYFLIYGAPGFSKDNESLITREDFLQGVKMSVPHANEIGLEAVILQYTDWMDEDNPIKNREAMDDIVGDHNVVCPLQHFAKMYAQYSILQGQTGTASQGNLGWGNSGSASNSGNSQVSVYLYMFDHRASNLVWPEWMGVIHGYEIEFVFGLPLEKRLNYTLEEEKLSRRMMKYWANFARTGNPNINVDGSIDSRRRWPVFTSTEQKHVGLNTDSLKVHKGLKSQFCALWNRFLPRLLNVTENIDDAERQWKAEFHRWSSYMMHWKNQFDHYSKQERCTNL

Take `C=CC(C)(O)CCC=C(C)C` (configuration not stated) [LINALOOL]: the inhibition constant Ki at Acetylcholinesterase (read-out: Ki) is 300 µM. The inhibition entry in assay [1] and in assay [2] was “Active” each time.

With `C=C(C)[C@H]1CC=C(C)C(=O)C1` [(S)(+)CARVONE], the Ki on Acetylcholinesterase (read-out: Ki) turned out to be 300 µM. Also, the inhibition result in assay [3] and in assay [1] was “Active” in each case.

Take `C=CCc1ccc(OC)cc1` [ESTRAGOLE]: the inhibition constant Ki on Acetylcholinesterase (read-out: Ki) was found to be 150 µM. For the same molecule, the inhibition result in assay [3] and in assay [1] was “Active” each time.

For `CC1=CCC(C(C)C)=CC1` [GAMMA-TERPINENE], the inhibitory constant (Ki) at Acetylcholinesterase (read-out: Ki) came to 200 µM. Also, the inhibition result in assay [1] and in assay [2] was “Active” in each case.

As to `C/C=C/c1ccc(OC)cc1` [ANETHOLE], the inhibition constant Ki result at Acetylcholinesterase is “Not Active”. Further, the inhibition result in assay [1] was “Active”.

As for `CC12CCC(CC1=O)C2(C)C` (configuration not stated) [CAMPHOR], at Acetylcholinesterase (read-out: Ki), the Ki turned out to be 50 µM. For the same molecule, the inhibition entry in assay [3] and in assay [1] was “Active” in each case.

As for `CC12CCC(C1)C(C)(C)C2=O` (configuration not stated) [FENCHONE], the inhibition turned out to be 53.8% in assay [4], 84.1% in assay [5], 90.7% in assay [6] and 79.8% in assay [7]. Besides, the Ki on Acetylcholinesterase (read-out: Ki) is 400 µM. The inhibition entry in assay [1] and in assay [2] was “Active” throughout.

`CC(C)=CCC/C(C)=C/CO` [GERANIOL]: the inhibition constant (Ki) at Acetylcholinesterase (read-out: Ki) amounted to 100 µM. Besides, the inhibition entry in assay [1] and in assay [2] was “Active” each time.

These data come from ChEMBL document CHEMBL3045849, “Mode of inhibition of acetylcholinesterase by monoterpenoids and implications for pest control” (Ind Crops Prod, 2010).
